The values below come from PubChem BioAssay (NCI).

Test systems include SNB-75 CNS; NCI-H522 lung; HL-60(TB) leukemia; HOP-62 NSCLC; OVCAR-8 ovarian; M14 melanoma; SF-268 CNS; RXF 393 renal; A549 NSCLC.
Assay in all cases: DTP human tumour cell line panel, 48 h

The structures appear in SMILES notation.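 Method: 48-hour compound exposure of cells in 96-well plates, five concentrations, linear interpolation of endpoints. Abbreviation: GI50, concentration required for 50% inhibition of growth. TGI marks complete inhibition of growth.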

For `CC([O-])=C1C(=O)c2ccccc2C1=O.CC([O-])=C1C(=O)c2ccccc2C1=O.CC[O-].CC[O-].[Ti+4]`, the GI50 in the test with SNB-75 CNS, with NCI-H522 lung, with HL-60(TB) leukemia, with HOP-62 NSCLC, with OVCAR-8 ovarian and in the test on M14 melanoma was more than 100 µM throughout. In the test on SF-268 CNS, the GI50 – broadly, the concentration giving 50% growth inhibition – is more than 100 µM. Besides, the TGI in the test on SNB-75 CNS, with NCI-H522 lung, with HL-60(TB) leukemia, in the test with HOP-62 NSCLC, in the test with OVCAR-8 ovarian and with M14 melanoma was more than 100 µM each time. Moreover, the TGI (as a rule, the concentration at which net growth stops) in the test with SF-268 CNS was more than 100 µM.
Consider `O=C1OC(=O)C2C3C=CC(C12)C1C2C=CC2C31` (stereo unspecified), for which the TGI in the test on NCI-H522 lung, with HL-60(TB) leukemia, in the test on RXF 393 renal, with A549 NSCLC, in the test with HOP-62 NSCLC and in the test on OVCAR-8 ovarian was more than 100 µM throughout. This compound also came in with a TGI in the test with SF-268 CNS of more than 100 µM.
Consider `O=c1c2cc3c(cc2c2cccc4c2n1CCC4)OCO3`, for which the TGI is more than 100 µM in the test with SNB-75 CNS; 42 µM in the test with NCI-H522 lung; more than 100 µM in the test on HL-60(TB) leukemia; 92.2 µM in the test with RXF 393 renal; more than 100 µM with A549 NSCLC; more than 100 µM in the test on HOP-62 NSCLC. In addition, the TGI in the test on OVCAR-8 ovarian and with M14 melanoma was more than 100 µM in each case.
Consider `COCCOCCOCCOc1cccc2c1C(=O)c1cccc(OCCOCCOCCOC)c1C2=O`, for which the TGI in the test with SNB-75 CNS, in the test on HL-60(TB) leukemia, in the test with RXF 393 renal, with A549 NSCLC, in the test on HOP-62 NSCLC and in the test on OVCAR-8 ovarian was more than 100 µM each time. The compound also showed a TGI in the test on M14 melanoma of more than 100 µM.
As to `O=C(NCCCl)SCCO`, the TGI in the test with SNB-75 CNS, in the test with NCI-H522 lung, with HL-60(TB) leukemia, in the test with RXF 393 renal, in the test on A549 NSCLC and with HOP-62 NSCLC was more than 100 µM each time. For the same compound, the TGI in the test on OVCAR-8 ovarian, in the test with M14 melanoma and in the test on SF-268 CNS was more than 100 µM in each case.
As to `Cc1ccc(-n2nnnc2-c2cnc(N3CCOCC3)nc2-c2cccc(C(F)(F)F)c2)cc1`, the GI50 with SNB-75 CNS is 1.6 µM; in the test with NCI-H522 lung, 1.89 µM; in the test with HL-60(TB) leukemia, 2.34 µM; in the test with RXF 393 renal, 1.99 µM; in the test with A549 NSCLC it was 2.26 µM; in the test with HOP-62 NSCLC, 1.44 µM. For the same compound, the figures for the GI50 in the test with OVCAR-8 ovarian, in the test with M14 melanoma and in the test on SF-268 CNS were 2.83 µM, 1.08 µM and 3 µM, respectively. The TGI in the test with SNB-75 CNS is 3.98 µM; in the test with NCI-H522 lung, more than 12.9 µM; in the test on HL-60(TB) leukemia, 17.5 µM; in the test with RXF 393 renal, more than 14.5 µM; in the test on A549 NSCLC it was more than 50 µM; with HOP-62 NSCLC, 4.9 µM. The TGI is more than 22.5 µM in the test with OVCAR-8 ovarian, 2.69 µM with M14 melanoma and 29.4 µM in the test with SF-268 CNS.
As to `NC(=O)NC1C(C(=O)O)N(Cc2ccccc2)C(=O)N1Cc1ccccc1` (stereo unspecified), the TGI with SNB-75 CNS, in the test on NCI-H522 lung, in the test on HL-60(TB) leukemia, with A549 NSCLC, in the test on HOP-62 NSCLC and in the test on OVCAR-8 ovarian was more than 100 µM each time. For the same compound, the TGI with M14 melanoma and with SF-268 CNS was more than 100 µM in each case.
`COc1cccc(N2C(=O)C3C4C=C5c6ccccc6N(c6ccccc6)C5(C3C2=O)[C@H]2C(=O)N(c3cccc(OC)c3)C(=O)[C@@H]42)c1` (stereo partly specified): the TGI in the test on SNB-75 CNS, with HL-60(TB) leukemia, in the test on RXF 393 renal, with A549 NSCLC, in the test on HOP-62 NSCLC and in the test on OVCAR-8 ovarian was more than 100 µM in each case. Further, the TGI in the test on M14 melanoma and in the test on SF-268 CNS was more than 100 µM each time.
On to `COc1cc2ccnc3c(=C(SC)SC)c(=O)c(c1OC)c23`, for which the TGI with SNB-75 CNS was 21.8 µM; in the test with NCI-H522 lung it was 5.18 µM; in the test on HL-60(TB) leukemia, 5.04 µM; with RXF 393 renal, 26.6 µM; in the test on A549 NSCLC, more than 100 µM; with HOP-62 NSCLC, more than 100 µM. Besides, the figures for the TGI in the test with OVCAR-8 ovarian, in the test on M14 melanoma and in the test with SF-268 CNS were 22.7 µM, 28.3 µM and 60.3 µM, respectively.
As to `COc1ccc(C(=O)C#Cc2c[nH]c(=O)[nH]c2=O)cc1`, the TGI with SNB-75 CNS was 45.5 µM; in the test on NCI-H522 lung, 10.6 µM; in the test with HL-60(TB) leukemia it was 23.3 µM; with RXF 393 renal, 18.3 µM; with A549 NSCLC, more than 59.6 µM; with HOP-62 NSCLC, 47.7 µM. Also, the TGI in the test on OVCAR-8 ovarian amounted to 32.5 µM; in the test on M14 melanoma it was 18 µM; in the test with SF-268 CNS, 55.3 µM.
For the compound `N#Cc1cccc(C=NC23CC4CC(CC(C4)C2)C3)c1`, the TGI was more than 100 µM in the test on NCI-H522 lung; 42.2 µM in the test on HL-60(TB) leukemia; more than 100 µM with RXF 393 renal; more than 100 µM in the test with A549 NSCLC; more than 100 µM with HOP-62 NSCLC; more than 100 µM with OVCAR-8 ovarian. In addition, the TGI with M14 melanoma and with SF-268 CNS was more than 100 µM in each case.
On to `C=C(C(=C)P(=S)(C(C)C)C(C)C)P(=S)(C(C)C)C(C)C`, for which the TGI in the test with SNB-75 CNS, with NCI-H522 lung, in the test with HL-60(TB) leukemia, in the test on RXF 393 renal, with A549 NSCLC and with HOP-62 NSCLC was more than 100 µM in each case. Also, the TGI with OVCAR-8 ovarian, in the test with M14 melanoma and in the test with SF-268 CNS was more than 100 µM throughout.
With `COc1cc(C(C)O)c[n+](CCC2CNc3ccccc32)c1` (stereo unspecified), the TGI in the test on SNB-75 CNS, with NCI-H522 lung, in the test with HL-60(TB) leukemia, in the test on A549 NSCLC, with HOP-62 NSCLC and in the test on OVCAR-8 ovarian was more than 100 µM each time. Moreover, the results for the TGI with M14 melanoma and with SF-268 CNS were more than 100 µM and 93 µM, respectively.
Consider `c1ccc(OCc2nnc3n2N=C(c2ccccc2)CS3)cc1`, for which the TGI with SNB-75 CNS is 95.1 µM; in the test on NCI-H522 lung, more than 100 µM; in the test on HL-60(TB) leukemia it was more than 100 µM; in the test on RXF 393 renal, more than 100 µM; in the test on A549 NSCLC, more than 100 µM; in the test with HOP-62 NSCLC, more than 100 µM. The TGI in the test on OVCAR-8 ovarian, with M14 melanoma and with SF-268 CNS was more than 100 µM each time.
